Laboratory results from patent publication US11236046B2, “Substituted heterocyclic sulfonamide compounds useful as TRPA1 modulators” (Genentech, Inc., priority 2013, dated 2022).

Target: human TRPA1 (Homo sapiens (Human), UniProt O75762)
Experiment: FLIPR Tetra calcium influx assay, block of cinnamaldehyde-induced calcium influx in CHO cells expressing TRPA1 (human)
Format: cell-based
Conditions: 20 min compound incubation, 75 uM cinnamaldehyde (~EC80), Hill coefficient fixed to 1.5, read-out: hTRPA1 AUC IC50
Procedure, shortened: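 CHO cells loaded with calcium dye, preincubated with compounds 20 min at room temperature in HBSS/20 mM HEPES pH 7.4 with 0.02% BSA. Channels activated by ~EC80 cinnamaldehyde (75 uM human, 45 uM rat); block of calcium influx read on FLIPR Tetra, IC50 fitted with fixed Hill coefficient.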

human TRPA1, sequence (O75762 whole entry): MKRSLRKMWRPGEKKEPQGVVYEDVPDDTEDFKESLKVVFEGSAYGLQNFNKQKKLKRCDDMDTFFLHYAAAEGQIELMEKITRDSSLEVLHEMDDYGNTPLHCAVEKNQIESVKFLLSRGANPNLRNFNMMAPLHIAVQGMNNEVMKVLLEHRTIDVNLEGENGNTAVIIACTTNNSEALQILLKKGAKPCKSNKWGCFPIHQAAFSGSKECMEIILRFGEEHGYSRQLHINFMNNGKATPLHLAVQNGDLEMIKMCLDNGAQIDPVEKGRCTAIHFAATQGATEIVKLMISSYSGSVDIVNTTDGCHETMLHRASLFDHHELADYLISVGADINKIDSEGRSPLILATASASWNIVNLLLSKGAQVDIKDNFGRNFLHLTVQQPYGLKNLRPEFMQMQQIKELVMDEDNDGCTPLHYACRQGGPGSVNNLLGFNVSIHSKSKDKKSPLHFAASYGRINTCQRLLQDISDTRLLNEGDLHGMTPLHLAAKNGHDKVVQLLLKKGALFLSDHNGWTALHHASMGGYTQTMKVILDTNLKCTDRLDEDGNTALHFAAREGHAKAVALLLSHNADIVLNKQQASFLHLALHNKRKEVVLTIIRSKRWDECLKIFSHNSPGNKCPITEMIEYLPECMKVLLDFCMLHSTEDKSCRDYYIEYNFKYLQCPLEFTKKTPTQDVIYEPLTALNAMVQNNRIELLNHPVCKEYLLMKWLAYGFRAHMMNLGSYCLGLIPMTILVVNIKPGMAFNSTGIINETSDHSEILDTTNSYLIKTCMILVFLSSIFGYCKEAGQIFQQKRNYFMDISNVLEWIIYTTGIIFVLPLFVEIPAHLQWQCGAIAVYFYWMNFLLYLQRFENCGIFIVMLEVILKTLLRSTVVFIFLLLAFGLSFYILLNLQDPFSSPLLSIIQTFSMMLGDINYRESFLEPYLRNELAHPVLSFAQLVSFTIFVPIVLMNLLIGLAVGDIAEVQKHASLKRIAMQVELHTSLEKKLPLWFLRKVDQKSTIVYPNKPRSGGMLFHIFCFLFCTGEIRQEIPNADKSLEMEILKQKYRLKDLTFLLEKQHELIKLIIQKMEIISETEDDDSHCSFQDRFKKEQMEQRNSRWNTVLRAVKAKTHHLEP

| SMILES | IC50 [nM] |
| --- | --- |
| O=C(NCc1cc(F)cc(-n2ccc(C(F)(F)F)n2)c1)[C@@H]1C[C@@H](F)CN1S(=O)(=O)c1ccc(F)cc1 [Example 87, (2S,4R)-4-fluoro-1-(4-fluorophenyl)sulfonyl-N-[[3-fluoro-5-[3-(trifluoromethyl)pyrazol-1-yl]phenyl]methyl]pyrrolidine-2-carboxamide] | 103 |
| O=C(NCc1cc(F)cc(-c2cnc(C(F)(F)F)cn2)c1)[C@@H]1C[C@@H](F)CN1S(=O)(=O)c1ccc(F)cc1 [Example 122, (2S,4R)-4-fluoro-1-(4-fluorophenyl)sulfonyl-N-[[3-fluoro-5-[5-(trifluoromethyl)pyrazin-2-yl]phenyl]methyl]pyrrolidine-2-carboxamide] | 14 |
| COc1nn(-c2ccc(C(F)(F)F)cc2)cc1CNC(=O)[C@@H]1C[C@@H](C#N)CN1S(=O)(=O)c1ccc(F)cc1 [Example 110, (2S,4R)-4-cyano-1-[(4-fluorobenzene)sulfonyl]-N-([3-methoxy-1-[4-(trifluoromethyl)phenyl]-1H-pyrazol-4-yl]methyl)pyrrolidine-2-carboxamide] | 165 |
| O=C(NCc1cc(C23CCC(C(F)F)(CC2)CC3)ncn1)[C@@H]1C[C@@H](F)CN1S(=O)(=O)c1ccc(F)cc1 [Example 133, (2S,4R)—N-[[6-[4-(difluoromethyl)-1-bicyclo[2.2.2]octanyl]pyrimidin-4-yl]methyl]-4-fluoro-1-(4-fluorophenyl)sulfonyl-pyrrolidine-2-carboxamide] | 59 |
| C[C@@]1(C(=O)NCc2cc(-c3ccc(C(F)(F)F)nc3)c(F)cn2)C[C@@H](F)CN1S(=O)(=O)c1ccc(F)cc1 [Example 126, (2S,4R)-4-fluoro-1-(4-fluorophenyl)sulfonyl-N-[[5-fluoro-4-[6-(trifluoromethyl)-3-pyridyl]-2-pyridyl]methyl]-2-methyl-pyrrolidine-2-carboxamide] | 25 |
| N#Cc1cnc(-c2ccc(C(F)(F)F)cc2)cc1CNC(=O)[C@@H]1C[C@@H](F)CN1S(=O)(=O)c1ccc(F)cc1 [Example 78, (2S,4R)—N-([5-cyano-2-[4-(trifluoromethyl)phenyl]pyridin-4-yl]methyl)-4-fluoro-1-[(4-fluorobenzene)sulfonyl]pyrrolidine-2-carboxamide] | 7 |
| O=C(NCc1cc(F)nc(-c2ccc(C(F)(F)F)nc2)c1)[C@@H]1C[C@@H](F)CN1S(=O)(=O)c1ccc(F)cc1 [Example 119, (2S,4R)-4-fluoro-N-([2-fluoro-6-[6-(trifluoromethyl)pyridin-3-yl]pyridin-4-yl]methyl)-1-[(4-fluorobenzene)sulfonyl]pyrrolidine-2-carboxamide] | 52 |
| C[C@@]1(F)C[C@@H](C(=O)NCc2cc(F)cc(-c3cnc(C(F)(F)F)cn3)c2)N(S(=O)(=O)c2ccc(F)cc2)C1 [Example 47, (2S,4R)-4-fluoro-N-(3-fluoro-5-(5-(trifluoromethyl)pyrazin-2-yl)benzyl)-1-((4-fluorophenyl)sulfonyl)-4-methylpyrrolidine-2-carboxamide] | 11 |
| O=C(NCc1cc(F)cc(-c2cnc(C(F)F)cn2)c1)[C@@H]1C[C@@H](F)CN1S(=O)(=O)c1ccc(F)cc1 [Example 90, (2S,4R)—N-[[3-[5-(difluoromethyl)pyrazin-2-yl]-5-fluoro-phenyl]methyl]-4-fluoro-1-(4-fluorophenyl)sulfonyl-pyrrolidine-2-carboxamide] | 62 |
| COCCOc1nc(C(F)(F)F)ccc1-c1cc(F)cc(CNC(=O)[C@@H]2C[C@@H](F)CN2S(=O)(=O)c2ccc(F)cc2)c1 [Example 190, (2S,4R)-4-fluoro-N-([3-fluoro-5-[2-(2-methoxyethoxy)-6-(trifluoromethyl)pyridin-3-yl]phenyl]methyl)-1-[(4-fluorobenzene)sulfonyl]pyrrolidine-2-carboxamide] | 52 |
| O=C(NCc1cc(-c2ccc(C(F)(F)F)cc2)ccc1F)[C@@H]1C[C@@H](F)CN1S(=O)(=O)c1ccc(F)cc1 [Example 177, (2S,4R)-4-fluoro-N-((4-fluoro-4′-(trifluoromethyl)-[1,1′-biphenyl]-3-yl)methyl)-1-((4-fluorophenyl)sulfonyl)pyrrolidine-2-carboxamide] | 5 |
| O=C(NCc1cc(Cl)nc(-c2ccc(OC(F)F)cc2)c1)[C@@H]1C[C@@H](F)CN1S(=O)(=O)c1ccc(F)cc1 [Example 165, (2S,4R)—N-((2-chloro-6-(4-(difluoromethoxy)phenyl)pyridin-4-yl)methyl)-4-fluoro-1-((4-fluorophenyl)sulfonyl)pyrrolidine-2-carboxamide] | 66 |

Other lines, results leading:

| IC50 [nM] | SMILES |
| --- | --- |
| 27 | Cc1cc(-c2cnc(C(F)(F)F)nc2)cc(CNC(=O)[C@@H]2[C@@H](F)CCN2S(=O)(=O)c2ccc(F)cc2)n1 [Example 191, (2R,3S)-3-fluoro-1-[(4-fluorobenzene)sulfonyl]-N-([6-methyl-4-[2-(trifluoromethyl)pyrimidin-5-yl]pyridin-2-yl]methyl)pyrrolidine-2-carboxamide] |
| 33 | O=C(NCc1cc(-c2ccc(C(F)F)cc2)ncn1)[C@@H]1[C@@H](F)CCN1S(=O)(=O)c1ccc(F)cc1 [Example 55, (2R,3S)—N-[[6-[4-(difluoromethyl)phenyl]pyrimidin-4-yl]methyl]-3-fluoro-1-(4-fluorophenyl)sulfonyl-pyrrolidine-2-carboxamide] |
| 6 | C[C@@]1(F)C[C@@H](C(=O)NCc2cc(-c3cnc(C(F)(F)F)nc3)ccc2F)N(S(=O)(=O)c2ccc(F)cc2)C1 [Example 187, (2S,4R)-4-fluoro-N-(2-fluoro-5-(2-(trifluoromethyl)pyrimidin-5-yl)benzyl)-1-((4-fluorophenyl)sulfonyl)-4-methylpyrrolidine-2-carboxamide] |
| 103 | O=C(NCc1cc(-c2cnc(C(F)(F)F)nc2)ccn1)[C@@H]1[C@@H](F)CCN1S(=O)(=O)c1ccc(F)cc1 [Example 157, (2R,3S)-3-fluoro-1-(4-fluorophenyl)sulfonyl-N-[[4-[2-(trifluoromethyl)pyrimidin-5-yl]-2-pyridyl]methyl]pyrrolidine-2-carboxamide] |
| 37 | COc1cc(-c2ccc(C(F)(F)F)nc2)cc(CNC(=O)[C@@H]2C[C@@H](F)CN2S(=O)(=O)c2ccc(F)cc2)n1 [Example 118, (2S,4R)-4-fluoro-1-[(4-fluorobenzene)sulfonyl]-N-([6-methoxy-4-[6-(trifluoromethyl)pyridin-3-yl]pyridin-2-yl]methyl)pyrrolidine-2-carboxamide] |
| 21 | O=C(NCc1cc(-c2cnc(C(F)(F)F)nc2)ccc1F)[C@]12C[C@H]1CCN2S(=O)(=O)c1ccc(F)cc1 [Example 182, (1R,5S)-4-(4-fluorophenyl)sulfonyl-N-[[2-fluoro-5-[2-(trifluoromethyl)pyrimidin-5-yl]phenyl]methyl]-4-azabicyclo[3.1.0]hexane-5-carboxamide] |
| 155 | O=C(NCc1cc(-c2cnc(C(F)(F)F)nc2)ncc1F)C1C2CC(CC2F)N1S(=O)(=O)c1ccc(F)cc1 (stereo not drawn) [Example 185, 5-fluoro-N-((5-fluoro-2-(2-(trifluoromethyl)pyrimidin-5-yl)pyridin-4-yl)methyl)-2-(4-fluorophenylsulfonyl)-2-aza-bicyclo[2.2.1]heptane-3-carboxamide] |
| 134 | COc1cnc(-c2cnc(C(F)(F)F)nc2)cc1CNC(=O)[C@@H]1C[C@@H](F)CN1S(=O)(=O)c1ccc(F)cc1 [Example 196, (2S,4R)-4-fluoro-1-(4-fluorophenylsulfonyl)-N-((5-methoxy-2-(2-(trifluoromethyl)pyrimidin-5-yl)pyridin-4-yl)methyl)pyrrolidine-2-carboxamide] |
| 66 | O=C(NCc1cc(-c2cnc(C(F)(F)F)cn2)c(F)cn1)[C@@H]1C[C@@H](F)CN1S(=O)(=O)c1ccc(F)cc1 [Example 102, (2S,4R)-4-fluoro-N-([5-fluoro-4-[5-(trifluoromethyl)pyrazin-2-yl]pyridin-2-yl]methyl)-1-[(4-fluorobenzene)sulfonyl]pyrrolidine-2-carboxamide] |
| 187 | O=C(NCc1cc(-c2ccc(C(F)(F)F)nc2)ccn1)[C@@H]1C[C@@H](F)CN1S(=O)(=O)c1ccc(F)cc1 [Example 81, (2S,4R)-4-fluoro-1-(4-fluorophenyl)sulfonyl-N-[[4-[6-(trifluoromethyl)-3-pyridyl]-2-pyridyl]methyl]pyrrolidine-2-carboxamide] |
| 3 | O=C(NCc1cc(-c2cnc(C(F)(F)F)nc2)ccc1F)[C@@H]1[C@H]2C[C@H]2CN1S(=O)(=O)c1ccc(F)cc1 [Example 183, (1S,2S,5R)—N-(2-fluoro-5-(2-(trifluoromethyl)pyrimidin-5-yl)benzyl)-3-((4-fluorophenyl)sulfonyl)-3-azabicyclo[3.1.0]hexane-2-carboxamide] |
| 176 | N#Cc1cnc(CNC(=O)[C@@H]2C[C@@H](F)CN2S(=O)(=O)c2ccc(F)cc2)cc1-c1ccc(C(F)(F)F)nc1 [Example 71, (2S,4R)—N-[[5-cyano-4-[6-(trifluoromethyl)-3-pyridyl]-2-pyridyl]methyl]-4-fluoro-1-(4-fluorophenyl)sulfonyl-pyrrolidine-2-carboxamide] |
| 4 | O=C(NCc1cc(-c2cnc(C(F)(F)F)nc2)ccc1Cl)[C@@H]1C[C@@H](F)CN1S(=O)(=O)c1ccc(F)cc1 [Example 158, (2S,4R)—N-[[2-chloro-5-[2-(trifluoromethyl)pyrimidin-5-yl]phenyl]methyl]-4-fluoro-1-(4-fluorophenyl)sulfonyl-pyrrolidine-2-carboxamide] |
| 90 | C[C@@]1(F)C[C@@H](C(=O)NCc2cc(-c3ccc(C(F)(F)F)nc3)ncn2)N(S(=O)(=O)c2ccc(F)cc2)C1 (single isomer, unassigned) [Example 107] |
| 16 | O=C(NCc1cc(F)cc(-c2ccc(C(F)(F)F)nc2)c1)[C@@H]1C[C@@H](F)CN1S(=O)(=O)c1ccc(F)cc1 [Example 139, (2S,4R)-4-fluoro-1-(4-fluorophenyl)sulfonyl-N-[[3-fluoro-5-[6-(trifluoromethyl)-3-pyridyl]phenyl]methyl]pyrrolidine-2-carboxamide] |
